From ChEMBL document CHEMBL3046235, “In vitro biological activities of new heterocyclic chalcone derivatives” (Med Chem Res, 2013) come the findings set out here.

Data set [1] has as its system Radical scavenging activity. The experiment in a line: Antioxidant activity assessed as DPPH radical scavenging activity at 15 ug/ml after 30 min by spectrophotometric analysis. It counts as functional.
The subject of data set [2] is HepG2. The experiment in a line: Cytotoxicity against Homo sapiens (human) HepG2 cells assessed as inhibition of cell viability by trypan blue exclusion method. The settings on record: read-out: LC50 (the source's name). In kind it is functional.
Data set [3] has as its system Candida albicans. The experiment in a line: Antimicrobial activity against Candida albicans assessed as growth inhibition by disk diffusion method. It counts as functional. Background: A growth-free zone around the sample is the usual read-out of agar diffusion tests.
Data set [4] relates to Aspergillus niger. The experiment in a line: Antimicrobial activity against Aspergillus niger assessed as growth inhibition by disk diffusion method. In kind it is functional.
Data set [5] relates to HepG2. The experiment in a line: Growth inhibition of Homo sapiens (human) HepG2 cells up to 75 ug/ml after 48 hr by MTT assay. It counts as functional, cell-based. (In general: Tetrazolium dyes change colour on reduction, which living cells bring about.)
In data set [6] the test system is Aspergillus niger. The experiment in a line: Antimicrobial activity against Aspergillus niger assessed as diameter of growth inhibition zone at 40 ug/ml by disk diffusion method. In kind it is functional. The settings on record: read-out: DIZ.
The subject of data set [7] is Salmonella typhi. The experiment in a line: Antimicrobial activity against Salmonella enterica subsp. enterica serovar Typhi isolated from infected patient assessed as growth inhibition by disk diffusion method. In kind it is functional.
Data set [8] deals with Vero. The experiment in a line: Cytotoxicity against Chlorocebus aethiops (African green monkey) Vero cells assessed as change in morphological changes after 4 days by inverted microscopic analysis. In kind it is cell-based. The settings on record: chlorocebus sabaeus, 96 h.
The test system of data set [9] is Buffalopox virus. The experiment in a line: Antiviral activity against Buffalopox virus virus infected African green monkey Vero cells assessed as reduction of virus titers at MNTC dose incubated for 24 hr measured after 4 days by TCID50 assay. It counts as functional, organism-based.
Data set [10] deals with Bacillus subtilis. The experiment in a line: Antimicrobial activity against Bacillus subtilis isolated from infected patient assessed as diameter of growth inhibition zone at 40 ug/ml by disk diffusion method. Conditions: read-out: DIZ. It counts as functional.
Data set [11] relates to Escherichia coli. The experiment in a line: Antimicrobial activity against Escherichia coli isolated from infected patient assessed as diameter of growth inhibition zone at 40 ug/ml by disk diffusion method. It counts as functional. The settings on record: read-out: DIZ.
Data set [12] concerns Salmonella typhi. The experiment in a line: Antimicrobial activity against Salmonella enterica subsp. enterica serovar Typhi isolated from infected patient assessed as diameter of growth inhibition zone at 40 ug/ml by disk diffusion method. It counts as functional. The settings on record: read-out: DIZ.
The test system of data set [13] is Staphylococcus aureus. The experiment in a line: Antimicrobial activity against Staphylococcus aureus isolated from infected patient assessed as growth inhibition by disk diffusion method. It counts as functional.
Data set [14] relates to Bacillus subtilis. The experiment in a line: Antimicrobial activity against Bacillus subtilis isolated from infected patient assessed as growth inhibition by disk diffusion method. In kind it is functional.
For data set [15], the system named is HepG2. The experiment in a line: Growth inhibition of Homo sapiens (human) HepG2 cells at 100 ug/ml after 48 hr by MTT assay. In kind it is functional. The settings on record: HepG2, 48 h, read-out: GI.
Data set [16] deals with Staphylococcus aureus. The experiment in a line: Antimicrobial activity against Staphylococcus aureus isolated from infected patient assessed as diameter of growth inhibition zone at 40 ug/ml by disk diffusion method. In kind it is functional. The settings on record: read-out: DIZ.
The test system of data set [17] is Goatpox virus. The experiment in a line: Antiviral activity against Goatpox virus infected African green monkey Vero cells assessed as reduction of virus titers at MNTC dose incubated for 24 hr measured after 6 days by TCID50 assay. In kind it is functional, organism-based.
The test system of data set [18] is Goatpox virus. The experiment in a line: Antiviral activity against Goatpox virus infected African green monkey Vero cells assessed as inhibition of viral replication at MNTC dose incubated for 24 hr measured after 6 days. In kind it is functional.
For data set [19], the system named is Buffalopox virus. The experiment in a line: Antiviral activity against Buffalopox virus virus infected African green monkey Vero cells assessed as inhibition of viral replication at MNTC dose incubated for 24 hr measured after 4 days. It counts as functional.
For data set [20], the system named is Candida albicans. The experiment in a line: Antimicrobial activity against Candida albicans assessed as diameter of growth inhibition zone at 40 ug/ml by disk diffusion method. It counts as functional. The settings on record: read-out: DIZ.
In data set [21] the test system is Escherichia coli. The experiment in a line: Antimicrobial activity against Escherichia coli isolated from infected patient assessed as growth inhibition by disk diffusion method. In kind it is functional.
The subject of data set [22] is Camelpox virus. The experiment in a line: Antiviral activity against Camelpox virus infected African green monkey Vero cells assessed as reduction of virus titers at MNTC dose incubated for 24 hr measured after 3 days by TCID50 assay. It counts as functional, organism-based.
Data set [23] has as its system Camelpox virus. The experiment in a line: Antiviral activity against Camelpox virus infected African green monkey Vero cells assessed as inhibition of viral replication at MNTC dose incubated for 24 hr measured after 3 days. It counts as functional.
Data set [24] concerns HepG2. The experiment in a line: Growth inhibition of Homo sapiens (human) HepG2 cells at 25 to 100 ug/ml after 48 hr by MTT assay. It counts as functional, cell-based.

Each structure is given as a SMILES string. Values after ≈ are worked out from the molar mass of the structure shown. Active and inactive are the calls of the source. The rule behind the calls is not given here.

One may read the MIC as the lowest concentration that inhibits growth of the organism. With `Cc1cc(C(=O)/C=C/c2ccc(-c3ccccc3)cc2)c(C)o1`, in data set [1], the Activity is 31%. In addition, in data set [2], the CC50 stood at 92 µg/mL (≈ 304 µM). Besides, the minimal inhibitory concentration (MIC) in data set [3] is 20 µg/mL (≈ 66.1 µM); in data set [4] it was 20 µg/mL (≈ 66.1 µM); in data set [7], 30 µg/mL (≈ 99.2 µM); in data set [13], 20 µg/mL (≈ 66.1 µM); in [14] it was 30 µg/mL (≈ 99.2 µM); in [21], 20 µg/mL (≈ 66.1 µM). Besides, in [5], the “growth inhibition (GI)” value was “Active”. Moreover, the zone of inhibition at 40 µg/mL in data set [6] was 23 mm; in data set [10], 24 mm; in data set [11], 23 mm; in data set [12], 22 mm; in data set [16], 16 mm; in data set [20], 23 mm. The MNTD in [8] came to 4.68 µg. The inhibition entry in [9], in [17] and in data set [22] was “inactive” in each case. The inhibition of growth at 100 µg/mL in [15] was 67%. Also, the “inhibition (INH)” value in data set [18], in data set [19] and in data set [23] was 0% in each case.

As for `COc1ccc(/C=C/C(=O)c2ccsc2)cc1`, in [1], the Activity came to 31%. For the same molecule, the CC50 in [2] was found to be 12 µg/mL (≈ 49.1 µM). Also, the MIC in data set [3] was 30 µg/mL (≈ 123 µM); in data set [4] it was 30 µg/mL (≈ 123 µM); in data set [7], 40 µg/mL (≈ 164 µM); in data set [13] it was 20 µg/mL (≈ 81.9 µM); in data set [14], 30 µg/mL (≈ 123 µM); in data set [21], 20 µg/mL (≈ 81.9 µM). Moreover, the zone of inhibition at 40 µg/mL in data set [6] came to 23 mm; in data set [10], 24 mm; in data set [11], 26 mm; in [12] it was 24 mm; in data set [16], 25 mm; in data set [20] it was 25 mm. Besides, the MNTD in data set [8] turned out to be 6.24 µg. Moreover, the inhibition result in data set [9], in data set [17] and in data set [22] was “inactive” in each case. In addition, the “growth inhibition (GI)” value in [24] was “Active”. Moreover, the “inhibition (INH)” value in data set [18], in [19] and in [23] was 0% in each case.
